pEC50, pIC50: −log10 of the molar value. Blank lines part the entries; values can stand above or below the compound they belong to.
Legend:
Jurkat cells [1] = test: Cell viability (MTS); format: cell-based; conditions: 48 hours
Method: (§1) Cells were cultured in RPMI-1640 containing 10% FBS (Jurkat and THP-1) or DMEM containing 10% FBS (A549 and MDA-MB-435). On Day 1, 1-5×10^4 cells per well in 100 μL of the cell culture medium containing 0.5% FBS were seeded into a 96-well flat bottom plate. On Day 2, the test compounds were added to the culture at different concentrations in triplicates. The controls include triplicates of no compound treatment and cell culture medium without cells. The cells were incubated at 5% CO2, 37° C. for 48 hours. On Day 4, MTS reagent was added to each well and incubated at 37° C. for 4 hours. The absorbance was read at 490 nm. The percentage of inhibition was calculated using the formula: [1-(experiment reading-background reading)/(negative control reading-background reading)]×100.

MDA-MB-435 cells [2] = test: Cell viability (MTS); format: cell-based
Method: as §1

THP1 cells = test: Cell viability (MTS); format: cell-based
Method: as §1

A549 cells = test: Cell viability (MTS); format: cell-based
Method: as §1

Jurkat cells [3] = test: Cell proliferation ([3H]-thymidine); format: cell-based; conditions: 48 hours, read-out: Anti-proliferation IC50, Jurkat
Method: (§2) Cells were cultured in RPMI-1640 containing 10% FBS (Jurkat) or DMEM containing 10% FBS (MDA-MB-435). On Day 1, 1×10^4 cells were seeded into one well of a 96-well white ISOPLATE™ with 0.5% FBS. The cells were cultured at 5% CO2, 37° C. overnight. On Day 2, the diluted test compounds were added into each well in a total volume of 100 μL of cell culture medium. For each cell line were set up three wells containing cells and only diluted DMSO as a negative (vehicle) control, and three wells without cells but containing the same volume and type of cell culture medium as background control. The cells were incubated at 5% CO2, 37° C. for 24 hours. On Day 3, 1 μL of [^3H]-thymidine was added into each well and incubation at 5% CO2, 37° C. was continued for another 24 hours. On Day 4, 30 μL of 50% TCA was added into each well and was incubated at 4° C. for 4 hours. Plates were washed with ddH2O four times and then air dried for 30 minutes followed by the addition of 100 μL of scintillation fluid into each well. The radioactivity was read using MICROBETA TRILUX™. The percentage of inhibition was calculated using the formula [1-(experiment reading-background reading)/(negative control reading-background reading)]×100.

MDA-MB-435 cells [4] = test: Cell proliferation ([3H]-thymidine); format: cell-based; conditions: read-out: Anti-proliferation IC50, MDA-MB-435
Method: as §2

AMPK (A1/B1/G1) = AMPK (A1/B1/G1) (Homo sapiens, UniProt Q13131); test: Kinase profiling, recombinant kinase; format: biochemical; conditions: 5 uM ATP
AKT1 = AKT1 (Homo sapiens, UniProt P31749); test: Kinase profiling, recombinant kinase; format: biochemical; conditions: 5 uM ATP
Method: (§3) Kinase profiling was conducted using different recombinant kinase targets against the compounds at 5 uM ATP. The kinases tested included AKT1 (RAC-alpha serine/threonine-protein kinas 1), JAK2, JAK3, p38α, p38β (p38 mitogen-activated protein kinase beta), GSK3β, SYK (Spleen tyrosine kinase), LCK, IKKα and IKKβ and CLK4. The test compounds were tested at 5 μM and 50 μM in triplicates.

CLK4 = CLK4 (Homo sapiens, UniProt Q9HAZ1); test: Kinase profiling, recombinant kinase; format: biochemical; conditions: 5 uM ATP
Method: as §3

GSK3 β = GSK3 β (Homo sapiens, UniProt P49841); test: Kinase profiling, recombinant kinase; format: biochemical; conditions: 5 uM ATP
Method: as §3

IKK α = IKK α (Homo sapiens, UniProt O15111); test: Kinase profiling, recombinant kinase; format: biochemical; conditions: 5 uM ATP
Method: as §3

IKK β = IKK β (Homo sapiens, UniProt O14920); test: Kinase profiling, recombinant kinase; format: biochemical; conditions: 5 uM ATP
Method: as §3

JAK2 = JAK2 (Homo sapiens, UniProt O60674); test: Kinase profiling, recombinant kinase; format: biochemical; conditions: 5 uM ATP
Method: as §3

JAK3 = JAK3 (Homo sapiens, UniProt P52333); test: Kinase profiling, recombinant kinase; format: biochemical; conditions: 5 uM ATP
Method: as §3

LCK = LCK (Homo sapiens, UniProt P06239); test: Kinase profiling, recombinant kinase; format: biochemical; conditions: 5 uM ATP
Method: as §3

SYK = SYK (Homo sapiens, UniProt P43405); test: Kinase profiling, recombinant kinase; format: biochemical; conditions: 5 uM ATP
Method: as §3

p38 α = p38 α (Homo sapiens, UniProt Q16539); test: Kinase profiling, recombinant kinase; format: biochemical; conditions: 5 uM ATP
Method: as §3

p38 β = p38 β (Homo sapiens, UniProt Q15759); test: Kinase profiling, recombinant kinase; format: biochemical; conditions: 5 uM ATP
Method: as §3

[5] = target: T1, recombinant human PDE4B1 enzyme (Homo sapiens, UniProt Q07343); test: PDE4B1 radiometric enzyme assay; format: biochemical; conditions: for Inhibitory activity on PDE4B1 enzyme: 1 μM cAMP
T1 construct: host or cells: baculoviral system
Method: Assays were performed using recombinant human PDE4B1 enzyme expressed in a baculoviral system. […] The reactions were performed at 1 μM of cAMP. The test articles were each tested at 0.2 μM and 20 μM in triplicates.

[6] = tested on: dextran sodium sulphate (DSS) induced model of inflammatory bowel disease (IBD)/colitis; test: DSS induced model of IBD/colitis; format: in vivo, female Balb/c mice; conditions: Day 0 to Day 8, DSS control group 24.2+5.7, normal control 1.9+2.4
Method: The efficacy of Compound 2 was tested in a dextran sodium sulphate (DSS) induced model of inflammatory bowel disease (IBD)/colitis in female Balb/c mice. Rolipram was used as a positive control in this experiment. Colitis was induced in the mice by providing drinking water containing DSS (3.5%, M. Wt. 30,000-50,000) from Day 0 to Day 8. The test compounds were administered as per their respective groups at specific dose levels starting from Day 0 through to Day 8. […] For dosing, Compound 2 was dissolved in vehicle (1.5% Cremophor EL) at 3 mg/mL and 1 mg/mL for the 30 and 10 mg/kg doses, respectively. […] All doses were administered by oral gavage.
There was a considerable increase in disease activity index (DAI) (cumulative scores of body weight, stool consistency and rectal bleeding) in the DSS control group (24.2+5.7) when compared to normal control group (1.9+2.4) which indicated very good disease induction.

[7] = target: T2, Aryl Hydrocarbon Receptor (AhR) (Homo sapiens, UniProt P35869); test: AhR-CYP1A1-bla LS-180 beta-lactamase reporter assay; format: cell-based; conditions: AhR-CYP1A1-bla LS-180 cells, 24 hours; read-out: EC50, AhR activation
T2 construct: host or cells: AhR-CYP1A1-bla LS-180
Method: This assay was performed using Invitrogen's CellSensor® cell line AhR-CYP1A1-bla LS-180 with GeneBLAzer® Beta-lactamase (bla) Reporter Technology as the detection method. When the AhR-CYP1A1 pathway is activated or inhibited, Beta-lactamase reporter activity is modulated and is measured quantitatively and selectively with the LiveBLAzer™-FRET B/G Loading Substrate.
Briefly, the AhR-CYP1A1-bla LS-180 cells were grown in Growth Media (MEM, 10% FBS, 0.1 mM NEAA, 1 mM Sodium Pyruvate). Cells were dissociated and resuspended in Assay Media (OPTI-MEM, 0.5% dialyzed FBS, 0.1 mM NEAA, 1 mM Sodium Pyruvate). Around 2×10^4 cells in a volume of 32 μL of assay media was added to each well of a 384 well Poly-D-Lysine assay plate. After incubation for 16 hours at 37° C. in a humidified incubator, 4 μL of a 10× serial dilution of test compounds were added to appropriate wells of the plate. The plate was incubated for 24 hours at 37° C. For the reporter activity assay, 8 μL of 1 μM Substrate was added to each well and the plate was incubated for 2 hours at room temperature. The plate was read on a fluorescence plate reader.

ICAM-1 = test: BioMap BF4T lung epithelium inflammation system; format: cell-based; conditions: stimulated human primary bronchial epithelial cells, 24 hours, ELISA
Method: (§4) The compounds were assayed in the Eurofin's BioMap system (BF4T Cells) which models Th2-type lung inflammation, an environment that promotes the recruitment of eosinophils, mast cells, neutrophils, and basophils as well as effector memory T cells. This system is relevant for allergy and asthma, pulmonary fibrosis, as well as chronic obstructive pulmonary disorder (COPD) exacerbations. The human primary bronchial epithelial cells were cultured and stimulated to induce the inflammatory factors responsible for the pathogenesis of various inflammatory diseases in the lung. The test compounds were added to the in vitro model culture system and incubated for 24 hours. The supernatants were collected and assayed for the protein production of various molecules using ELISA assays. The biomarkers assayed included MCP-1, Eotaxin-3, VCAM-1, ICAM-1, CD90, IL-8, IL1α, Keratin 8/18, MMP1, MMP-3, MMP-9, PAI-1, SRB, tPA, and uPA.

IL-1α = test: BioMap BF4T lung epithelium inflammation system; format: cell-based; conditions: stimulated human primary bronchial epithelial cells, 24 hours, ELISA
Method: as §4

IL-8 = test: BioMap BF4T lung epithelium inflammation system; format: cell-based; conditions: stimulated human primary bronchial epithelial cells, 24 hours, ELISA
Method: as §4

VCAM-1 = test: BioMap BF4T lung epithelium inflammation system; format: cell-based; conditions: stimulated human primary bronchial epithelial cells, 24 hours, ELISA
Method: as §4

[8] = Homo sapiens, MDA-MB-435, 48 hours
[9] = read-out: Inhibitory activity on PDE4B1 enzyme

T1 sequence (Q07343 whole entry): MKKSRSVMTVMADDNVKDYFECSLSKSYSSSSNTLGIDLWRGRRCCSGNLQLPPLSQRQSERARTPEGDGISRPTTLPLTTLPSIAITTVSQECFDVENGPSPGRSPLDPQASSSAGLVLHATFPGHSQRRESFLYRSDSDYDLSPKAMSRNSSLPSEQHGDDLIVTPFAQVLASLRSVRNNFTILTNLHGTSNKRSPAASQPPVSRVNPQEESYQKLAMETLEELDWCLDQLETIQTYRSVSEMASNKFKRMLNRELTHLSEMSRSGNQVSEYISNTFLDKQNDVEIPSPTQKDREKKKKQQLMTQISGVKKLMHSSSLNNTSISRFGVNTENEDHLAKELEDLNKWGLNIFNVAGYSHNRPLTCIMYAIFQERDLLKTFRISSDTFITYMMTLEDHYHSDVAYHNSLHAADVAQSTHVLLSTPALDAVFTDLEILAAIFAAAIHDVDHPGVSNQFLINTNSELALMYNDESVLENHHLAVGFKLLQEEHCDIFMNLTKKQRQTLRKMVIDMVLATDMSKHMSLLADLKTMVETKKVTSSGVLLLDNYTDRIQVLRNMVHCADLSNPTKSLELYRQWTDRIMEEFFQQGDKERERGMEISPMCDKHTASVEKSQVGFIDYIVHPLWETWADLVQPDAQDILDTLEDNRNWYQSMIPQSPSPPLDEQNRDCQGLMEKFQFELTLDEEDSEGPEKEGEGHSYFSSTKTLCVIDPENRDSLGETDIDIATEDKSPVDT
Chain of IKK β (O14920 whole entry, species assumed): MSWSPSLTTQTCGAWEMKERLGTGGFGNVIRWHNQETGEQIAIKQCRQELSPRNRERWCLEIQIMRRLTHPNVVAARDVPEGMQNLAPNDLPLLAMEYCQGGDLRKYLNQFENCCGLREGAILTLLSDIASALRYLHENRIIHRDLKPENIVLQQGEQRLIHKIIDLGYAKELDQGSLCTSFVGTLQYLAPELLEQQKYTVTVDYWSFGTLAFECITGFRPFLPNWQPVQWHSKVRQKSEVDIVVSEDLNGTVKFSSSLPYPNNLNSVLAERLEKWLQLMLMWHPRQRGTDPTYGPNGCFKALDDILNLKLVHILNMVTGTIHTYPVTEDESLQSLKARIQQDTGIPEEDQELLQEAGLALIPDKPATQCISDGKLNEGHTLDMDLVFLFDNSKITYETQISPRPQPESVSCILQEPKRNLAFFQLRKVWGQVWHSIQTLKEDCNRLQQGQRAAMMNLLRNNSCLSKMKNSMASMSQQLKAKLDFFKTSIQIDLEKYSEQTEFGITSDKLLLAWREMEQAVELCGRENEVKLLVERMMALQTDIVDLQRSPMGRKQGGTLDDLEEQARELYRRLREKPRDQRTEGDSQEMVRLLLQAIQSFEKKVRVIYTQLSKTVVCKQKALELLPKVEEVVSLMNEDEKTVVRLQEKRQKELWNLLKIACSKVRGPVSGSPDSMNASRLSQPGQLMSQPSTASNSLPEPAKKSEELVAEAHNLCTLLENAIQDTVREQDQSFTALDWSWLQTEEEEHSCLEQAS
Chain of CLK4 (Q9HAZ1 whole entry, species assumed): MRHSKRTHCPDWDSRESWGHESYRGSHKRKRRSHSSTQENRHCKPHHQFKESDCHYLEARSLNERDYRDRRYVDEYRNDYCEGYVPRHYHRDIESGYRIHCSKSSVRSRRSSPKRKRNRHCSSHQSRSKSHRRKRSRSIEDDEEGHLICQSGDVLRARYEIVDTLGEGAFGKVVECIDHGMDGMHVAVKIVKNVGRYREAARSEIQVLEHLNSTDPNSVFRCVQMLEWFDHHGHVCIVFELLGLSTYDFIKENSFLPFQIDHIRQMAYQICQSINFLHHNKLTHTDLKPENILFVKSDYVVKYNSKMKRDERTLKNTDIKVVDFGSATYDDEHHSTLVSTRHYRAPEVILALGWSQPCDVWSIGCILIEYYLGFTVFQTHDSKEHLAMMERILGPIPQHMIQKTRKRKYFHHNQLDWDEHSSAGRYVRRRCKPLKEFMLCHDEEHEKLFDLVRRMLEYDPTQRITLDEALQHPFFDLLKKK
Chain of AKT1 (P31749 whole entry, species assumed): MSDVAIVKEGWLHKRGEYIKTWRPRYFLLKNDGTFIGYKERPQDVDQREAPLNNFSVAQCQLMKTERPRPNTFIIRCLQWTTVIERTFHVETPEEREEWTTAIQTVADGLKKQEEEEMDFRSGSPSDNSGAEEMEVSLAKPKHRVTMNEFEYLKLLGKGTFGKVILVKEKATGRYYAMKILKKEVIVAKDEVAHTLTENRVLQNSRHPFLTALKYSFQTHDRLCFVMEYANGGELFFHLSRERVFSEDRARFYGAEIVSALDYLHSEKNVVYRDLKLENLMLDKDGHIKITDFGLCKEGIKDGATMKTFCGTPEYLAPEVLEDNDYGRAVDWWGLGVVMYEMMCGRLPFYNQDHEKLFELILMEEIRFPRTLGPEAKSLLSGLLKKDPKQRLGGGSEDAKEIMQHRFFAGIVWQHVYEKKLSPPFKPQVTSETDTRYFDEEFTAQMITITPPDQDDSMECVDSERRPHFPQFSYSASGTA
Chain of p38 α (Q16539 whole entry): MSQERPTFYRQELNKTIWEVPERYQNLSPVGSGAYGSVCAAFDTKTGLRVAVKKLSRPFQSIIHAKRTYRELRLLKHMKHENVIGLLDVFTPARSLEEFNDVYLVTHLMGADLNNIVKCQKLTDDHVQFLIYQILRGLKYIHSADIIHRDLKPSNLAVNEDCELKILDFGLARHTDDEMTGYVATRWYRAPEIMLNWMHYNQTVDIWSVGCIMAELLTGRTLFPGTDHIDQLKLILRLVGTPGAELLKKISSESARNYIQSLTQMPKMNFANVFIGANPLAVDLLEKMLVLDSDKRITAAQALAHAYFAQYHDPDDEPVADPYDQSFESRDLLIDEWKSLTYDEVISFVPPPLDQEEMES
Chain of IKK α (O15111 whole entry, species assumed): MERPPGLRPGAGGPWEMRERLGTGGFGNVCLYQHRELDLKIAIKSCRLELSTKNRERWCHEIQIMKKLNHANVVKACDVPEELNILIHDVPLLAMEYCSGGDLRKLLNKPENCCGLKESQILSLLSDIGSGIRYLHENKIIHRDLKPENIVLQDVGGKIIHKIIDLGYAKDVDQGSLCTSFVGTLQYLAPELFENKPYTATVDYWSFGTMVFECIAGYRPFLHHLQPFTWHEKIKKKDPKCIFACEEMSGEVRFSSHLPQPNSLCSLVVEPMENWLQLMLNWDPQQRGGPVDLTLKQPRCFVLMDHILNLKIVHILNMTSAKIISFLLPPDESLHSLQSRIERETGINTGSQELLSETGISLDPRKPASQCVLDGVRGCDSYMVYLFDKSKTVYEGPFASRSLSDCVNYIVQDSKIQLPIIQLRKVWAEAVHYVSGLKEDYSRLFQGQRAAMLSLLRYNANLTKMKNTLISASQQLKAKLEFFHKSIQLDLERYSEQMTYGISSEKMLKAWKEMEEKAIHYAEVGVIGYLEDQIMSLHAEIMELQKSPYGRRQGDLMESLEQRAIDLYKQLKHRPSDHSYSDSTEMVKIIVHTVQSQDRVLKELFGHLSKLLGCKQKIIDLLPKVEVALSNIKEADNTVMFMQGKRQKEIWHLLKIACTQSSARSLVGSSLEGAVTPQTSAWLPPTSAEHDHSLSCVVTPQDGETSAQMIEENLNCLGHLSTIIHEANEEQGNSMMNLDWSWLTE
Chain of JAK3 (P52333 whole entry, species assumed): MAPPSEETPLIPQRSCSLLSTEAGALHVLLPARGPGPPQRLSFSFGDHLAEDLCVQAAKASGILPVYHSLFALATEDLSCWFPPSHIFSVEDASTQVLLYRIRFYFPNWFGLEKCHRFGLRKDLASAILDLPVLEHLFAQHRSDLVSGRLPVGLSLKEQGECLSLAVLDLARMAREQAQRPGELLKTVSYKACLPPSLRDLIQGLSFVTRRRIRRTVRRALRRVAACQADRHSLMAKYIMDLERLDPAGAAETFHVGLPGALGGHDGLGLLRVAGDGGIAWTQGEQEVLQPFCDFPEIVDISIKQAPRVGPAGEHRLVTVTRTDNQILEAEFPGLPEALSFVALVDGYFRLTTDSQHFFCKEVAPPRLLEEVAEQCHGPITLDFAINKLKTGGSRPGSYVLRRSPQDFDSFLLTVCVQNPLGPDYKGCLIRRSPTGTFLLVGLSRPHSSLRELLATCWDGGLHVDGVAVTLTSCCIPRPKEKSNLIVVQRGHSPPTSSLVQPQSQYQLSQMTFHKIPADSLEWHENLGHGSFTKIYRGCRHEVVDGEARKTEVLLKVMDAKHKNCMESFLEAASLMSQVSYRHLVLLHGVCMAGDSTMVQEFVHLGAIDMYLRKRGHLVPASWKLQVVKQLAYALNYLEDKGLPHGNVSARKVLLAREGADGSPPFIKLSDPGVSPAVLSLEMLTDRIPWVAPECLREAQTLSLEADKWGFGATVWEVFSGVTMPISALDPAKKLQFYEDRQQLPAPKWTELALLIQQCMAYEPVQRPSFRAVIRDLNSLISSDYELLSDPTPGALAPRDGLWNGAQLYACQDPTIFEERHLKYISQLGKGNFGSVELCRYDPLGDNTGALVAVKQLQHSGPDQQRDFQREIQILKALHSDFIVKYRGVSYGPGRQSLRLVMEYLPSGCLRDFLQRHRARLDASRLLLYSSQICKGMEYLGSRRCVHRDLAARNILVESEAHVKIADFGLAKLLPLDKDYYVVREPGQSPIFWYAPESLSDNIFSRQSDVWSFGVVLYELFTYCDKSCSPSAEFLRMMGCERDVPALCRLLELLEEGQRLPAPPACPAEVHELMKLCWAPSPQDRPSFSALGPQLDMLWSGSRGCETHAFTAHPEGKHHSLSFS
Chain of p38 β (Q15759 whole entry): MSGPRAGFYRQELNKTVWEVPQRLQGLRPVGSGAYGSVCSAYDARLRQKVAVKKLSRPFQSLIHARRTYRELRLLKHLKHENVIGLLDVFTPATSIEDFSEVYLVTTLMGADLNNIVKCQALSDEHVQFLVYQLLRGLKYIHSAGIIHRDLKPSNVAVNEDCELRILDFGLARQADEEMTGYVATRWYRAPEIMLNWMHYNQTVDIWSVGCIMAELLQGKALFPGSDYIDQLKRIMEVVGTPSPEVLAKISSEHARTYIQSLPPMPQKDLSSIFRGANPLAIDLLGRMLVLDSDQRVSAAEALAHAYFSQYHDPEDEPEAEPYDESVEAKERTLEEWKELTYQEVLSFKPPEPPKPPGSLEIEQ

Compound: CC(C)c1ccc(/C=C/c2ccc(F)cc2)cc1O [Compound 2, 3-hydroxy-4-isopropyl-4′-fluoro-(E)-stilbene]
pIC50 (A549 cells; Homo sapiens, A549, 48 hours): 4.35
pIC50 (Jurkat cells [1]; Homo sapiens, Jurkat): 5.12
pIC50 (MDA-MB-435 cells [2]; [8]): 4.60
pIC50 (THP1 cells; Homo sapiens, THP-1, 48 hours): 5.50
pIC50 (Jurkat cells [3]; Homo sapiens, Jurkat): 5.78
pIC50 (MDA-MB-435 cells [4]; [8]): 5.22
inhibition at 5 µM (AMPK (A1/B1/G1); 5 μM compound): < 20%
inhibition at 50 µM (AMPK (A1/B1/G1); 50 μM compound): > 50%
inhibition at 5 µM (AKT1; 5 μM compound): < 20%
inhibition at 50 µM (AKT1; 50 μM compound): < 20%
inhibition at 5 µM (CLK4; 5 μM compound): > 50%
inhibition at 50 µM (CLK4; 50 μM compound): > 50%
inhibition at 5 µM (GSK3 β; 5 μM compound): < 20%
inhibition at 50 µM (GSK3 β; 50 μM compound): > 50%
inhibition at 5 µM (IKK α; 5 μM compound): < 20%
inhibition at 50 µM (IKK α; 50 μM compound): < 20%
inhibition at 5 µM (IKK β; 5 μM compound): < 20%
inhibition at 50 µM (IKK β; 50 μM compound): 31 to 50%
inhibition at 5 µM (JAK2; 5 μM compound): < 20%
inhibition at 50 µM (JAK2; 50 μM compound): > 50%
inhibition at 5 µM (JAK3; 5 μM compound): < 20%
inhibition at 50 µM (JAK3; 50 μM compound): 20 to 30%
inhibition at 5 µM (LCK; 5 μM compound): < 20%
inhibition at 50 µM (LCK; 50 μM compound): 31 to 50%
inhibition at 5 µM (SYK; 5 μM compound): < 20%
inhibition at 50 µM (SYK; 50 μM compound): < 20%
inhibition at 5 µM (p38 α; 5 μM compound): < 20%
inhibition at 50 µM (p38 α; 50 μM compound): > 50%
inhibition at 5 µM (p38 β; 5 μM compound): < 20%
inhibition at 50 µM (p38 β; 50 μM compound): 20 to 30%
inhibition at 0.2 µM [5, 9]: 15 to 30%
inhibition at 20 µM [5, 9]: > 50%
disease activity index (DAI) (cumulative scores of body weight, stool consistency and rectal bleeding) ([6]; 10 mg/kg oral gavage): 17.4+12.0
disease activity index (DAI) (cumulative scores of body weight, stool consistency and rectal bleeding) ([6]; 30 mg/kg oral gavage): 15.4+4.9
pEC50 [7]: 7.57
effect on production of ICAM-1 (ICAM-1): suppress the production
effect on production of IL-1α (IL-1α): suppress the production
effect on production of IL-8 (IL-8): suppress the production
effect on production of VCAM-1 (VCAM-1): suppress the production

Compound: Oc1cc(/C=C/c2ccccc2)ccc1C1CC1 [Compound 11]
pIC50 (Jurkat cells [3]): 5.77
pIC50 (MDA-MB-435 cells [4]; 48 hours): 5.37

Compound: N#Cc1ccc(/C=C/c2ccc(C3CC3)c(O)c2)c(C#N)c1 [Compound 17]
pIC50 (Jurkat cells [1]): 5.10
pIC50 (MDA-MB-435 cells [2]; 48 hours): 5.75
pIC50 (THP1 cells; 48 hours): 5.56
pIC50 (Jurkat cells [3]): 5.86
pIC50 (MDA-MB-435 cells [4]; 48 hours): 5.78

Second part, led by results:

pIC50 (Jurkat cells [1]): 5.67
pIC50 (MDA-MB-435 cells [2]; 48 hours): 4.60
pIC50 (THP1 cells; 48 hours): 5.65
Compound: CC(C)c1ccc(/C=C/c2ccccc2)cc1O [Compound 1]

pIC50 (A549 cells; 48 hours): 4.49
pIC50 (Jurkat cells [1]): 5.78
pIC50 (MDA-MB-435 cells [2]; 48 hours): 5.79
pIC50 (THP1 cells; 48 hours): 4.81
Inhibitory activity on PDE4B1 enzyme ([5]; 0.2 μM compound): + (“+” is 15-30% inhibition)
Compound: Oc1cc(/C=C/c2ccc(F)cc2)ccc1C1CC1 [Compound 12]
Inhibitory activity on PDE4B1 enzyme ([5]; 20 μM compound): +++ (“+++” is greater than 50% inhibition)
